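GI50 = concentration required for 50% inhibition of growth. TGI marks complete inhibition of growth.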
Key:
Assay in all cases: growth of human tumour cells (NCI), 384-well format
[1] = system: T-47D breast
[2] = system: RPMI-8226 leukemia
[3] = system: NCI-H226 lung
[4] = system: A498 renal
[5] = system: UACC-257 melanoma
[6] = system: SW-620 colon
[7] = system: KM12 colon
[8] = system: SF-295 CNS
[9] = system: CAKI-1 renal
[10] = system: SK-MEL-5 melanoma
[11] = system: SF-539 CNS
[12] = system: SF-268 CNS
[13] = system: TK-10 renal
[14] = system: K-562 leukemia
[15] = system: MDA-MB-435 melanoma
[16] = system: HCT-15 colon
[17] = system: MDA-MB-231 breast
[18] = system: RXF 393 renal
[19] = system: ACHN renal
[20] = system: M14 melanoma
[21] = system: MDA-MB-468 breast
[22] = system: MOLT-4 leukemia
[23] = system: HL-60(TB) leukemia
[24] = system: HS 578T breast
[25] = system: LOX IMVI melanoma
[26] = system: SN12C renal
[27] = system: UACC-62 melanoma
[28] = system: HCC-2998 colon
[29] = system: HOP-92 NSCLC
[30] = system: 786-0 renal
[31] = system: MCF7 breast
[32] = system: SNB-75 CNS
[33] = system: NCI-H23 lung
[34] = system: COLO 205 colon
[35] = system: OVCAR-5 ovarian
[36] = system: OVCAR-4 ovarian
[37] = system: EKVX NSCLC
[38] = system: IGROV1 ovarian
[39] = system: SK-OV-3 ovarian
[40] = system: NCI-H522 lung
[41] = system: SNB-19 CNS
[42] = system: UO-31 renal
[43] = system: SK-MEL-28 melanoma
[44] = system: OVCAR-8 ovarian
[45] = system: A549 NSCLC
[46] = system: HOP-62 NSCLC
[47] = system: SR leukemia
[48] = system: HT29 colon
[49] = system: MALME-3M melanoma
[50] = system: DU-145 prostate
[51] = system: NCI-H322M lung
[52] = system: PC-3 prostate
[53] = system: OVCAR-3 ovarian
[54] = system: BT-549 breast
[55] = system: NCI-H460 NSCLC
[56] = system: NCI/ADR-RES ovarian

Q: With `C=CC(=O)N1CC[C@H](n2nc(C#Cc3cc(OC)cc(OC)c3)c3c(N)ncnc32)C1` as the molecule, how does the GI50 [1] read?
A: 3.29 µM

Q: What about the TGI [1] of the same molecule?
A: 52.6 µM

Q: What about the GI50 [2] of the same molecule?
A: 1.53 µM

Q: What about the TGI [2] of the same molecule?
A: 4.41 µM

Q: What about the GI50 [3] of the same molecule?
A: 12.7 µM

Q: What about the TGI [3] of the same molecule?
A: > 100 µM

Q: What about the GI50 [4] of the same molecule?
A: 2.73 µM

Q: What about the TGI [4] of the same molecule?
A: 18.2 µM

Q: And the GI50 [5]?
A: 2.86 µM

Q: And the TGI [5]?
A: 8.35 µM

Q: And the GI50 [6]?
A: 13.2 µM

Q: And the TGI [6]?
A: 32.6 µM

Q: What about the GI50 [7] of the same molecule?
A: 10.2 µM

Q: And the TGI [7]?
A: 42.1 µM

Q: And the GI50 [8]?
A: 25.5 µM

Q: What about the TGI [8] of the same molecule?
A: > 100 µM

Q: And the GI50 [9]?
A: 4.44 µM

Q: What about the TGI [9] of the same molecule?
A: > 100 µM

Q: What about the GI50 [10] of the same molecule?
A: 5.05 µM

Q: And the TGI [10]?
A: 18.9 µM

Q: And the GI50 [11]?
A: 4.52 µM

Q: What about the TGI [11] of the same molecule?
A: 20.6 µM

Q: And the GI50 [12]?
A: 9.33 µM

Q: What about the TGI [12] of the same molecule?
A: 75 µM

Q: What about the GI50 [13] of the same molecule?
A: 5.66 µM

Q: And the TGI [13]?
A: 71.7 µM

Q: What about the GI50 [14] of the same molecule?
A: 12 µM

Q: What about the TGI [14] of the same molecule?
A: > 100 µM

Q: And the GI50 [15]?
A: 31.1 µM

Q: And the TGI [15]?
A: > 100 µM

Q: What about the GI50 [16] of the same molecule?
A: 4.46 µM

Q: And the TGI [16]?
A: 25.6 µM

Q: What about the GI50 [17] of the same molecule?
A: 4.03 µM

Q: And the TGI [17]?
A: 68.2 µM

Q: What about the GI50 [18] of the same molecule?
A: 6.72 µM

Q: What about the TGI [18] of the same molecule?
A: 66.4 µM

Q: What about the GI50 [19] of the same molecule?
A: 6.8 µM

Q: And the TGI [19]?
A: 72.9 µM

Q: What about the GI50 [20] of the same molecule?
A: 16.9 µM

Q: And the TGI [20]?
A: 69.8 µM

Q: And the GI50 [21]?
A: 2.09 µM

Q: What about the TGI [21] of the same molecule?
A: 4.53 µM

Q: What about the GI50 [22] of the same molecule?
A: 2.47 µM

Q: And the TGI [22]?
A: 5.06 µM

Q: What about the GI50 [23] of the same molecule?
A: 4.6 µM

Q: And the TGI [23]?
A: 16 µM

Q: What about the GI50 [24] of the same molecule?
A: 2.74 µM

Q: What about the TGI [24] of the same molecule?
A: 11.5 µM

Q: What about the GI50 [25] of the same molecule?
A: 6.09 µM

Q: And the TGI [25]?
A: 22.1 µM

Q: What about the GI50 [26] of the same molecule?
A: 3.64 µM

Q: What about the TGI [26] of the same molecule?
A: 33.9 µM

Q: What about the GI50 [27] of the same molecule?
A: 5.78 µM

Q: What about the TGI [27] of the same molecule?
A: 30.5 µM

Q: What about the GI50 [28] of the same molecule?
A: 2.98 µM

Q: And the TGI [28]?
A: 11 µM

Q: And the GI50 [29]?
A: 2.52 µM

Q: What about the TGI [29] of the same molecule?
A: 14.2 µM

Q: What about the GI50 [30] of the same molecule?
A: 2.96 µM

Q: What about the TGI [30] of the same molecule?
A: 19.1 µM

Q: And the GI50 [31]?
A: 4.34 µM

Q: And the TGI [31]?
A: > 100 µM

Q: What about the GI50 [32] of the same molecule?
A: 1.44 µM

Q: And the TGI [32]?
A: 10.7 µM

Q: What about the GI50 [33] of the same molecule?
A: 10.5 µM

Q: What about the TGI [33] of the same molecule?
A: 28.6 µM

Q: And the GI50 [34]?
A: 30 µM

Q: What about the TGI [34] of the same molecule?
A: > 100 µM

Q: And the GI50 [35]?
A: 49.4 µM

Q: What about the TGI [35] of the same molecule?
A: > 100 µM

Q: What about the GI50 [36] of the same molecule?
A: 2.02 µM

Q: What about the TGI [36] of the same molecule?
A: 25.6 µM

Q: What about the GI50 [37] of the same molecule?
A: 13.4 µM

Q: What about the TGI [37] of the same molecule?
A: 98.9 µM

Q: What about the GI50 [38] of the same molecule?
A: 4.93 µM

Q: And the TGI [38]?
A: 20.7 µM

Q: And the GI50 [39]?
A: 5.24 µM

Q: And the TGI [39]?
A: 41.5 µM

Q: What about the GI50 [40] of the same molecule?
A: 4.39 µM

Q: And the TGI [40]?
A: 14.2 µM

Q: And the GI50 [41]?
A: 12.6 µM

Q: And the TGI [41]?
A: > 100 µM

Q: And the GI50 [42]?
A: 17.6 µM

Q: What about the TGI [42] of the same molecule?
A: > 100 µM

Q: What about the GI50 [43] of the same molecule?
A: 17.7 µM

Q: What about the TGI [43] of the same molecule?
A: 91.2 µM

Q: And the GI50 [44]?
A: 15.9 µM

Q: And the TGI [44]?
A: 72.3 µM

Q: What about the GI50 [45] of the same molecule?
A: 12.7 µM

Q: What about the TGI [45] of the same molecule?
A: > 100 µM

Q: What about the GI50 [46] of the same molecule?
A: 6.44 µM

Q: And the TGI [46]?
A: > 100 µM

Q: What about the GI50 [47] of the same molecule?
A: 3.11 µM

Q: What about the TGI [47] of the same molecule?
A: 13 µM

Q: What about the GI50 [48] of the same molecule?
A: 17.5 µM

Q: And the TGI [48]?
A: > 100 µM

Q: What about the GI50 [49] of the same molecule?
A: 7.39 µM

Q: What about the TGI [49] of the same molecule?
A: 31.4 µM

Q: What about the GI50 [50] of the same molecule?
A: 9.04 µM

Q: What about the TGI [50] of the same molecule?
A: > 100 µM

Q: What about the GI50 [51] of the same molecule?
A: 11.5 µM

Q: What about the TGI [51] of the same molecule?
A: > 100 µM

Q: And the GI50 [52]?
A: 20.1 µM

Q: And the TGI [52]?
A: > 100 µM

Q: What about the GI50 [53] of the same molecule?
A: 3.45 µM

Q: What about the TGI [53] of the same molecule?
A: 17.6 µM

Q: What about the GI50 [54] of the same molecule?
A: 1.51 µM

Q: And the TGI [54]?
A: 12.2 µM

Q: What about the GI50 [55] of the same molecule?
A: 12 µM

Q: What about the TGI [55] of the same molecule?
A: > 100 µM

Q: And the GI50 [56]?
A: 11.1 µM

Q: What about the TGI [56] of the same molecule?
A: 44.3 µM
